The record followed here is patent US5225528A, “Cyclic hexapeptide oxytocin antagonists” (priority 1990, dated 1993).

The IC50 is the concentration needed to halve the response being measured.

The target of one test is T1, AVP-V1 sites (Rattus norvegicus, UniProt P30560).
T1 construct: crude membrane preparation of male rat liver (AVP-V1 sites); from tissue; host or cells: male rat liver, crude membranes
Put plainly: [^3 H]AVP binding to crude membrane preparation of male rat liver (AVP-V1 sites). The procedure: (§1) Nonspecific binding (5-10% of the total binding) was determined using 10 μM unlabeled AVP, and the binding reaction was terminated by filtration as described above for the [^3 H]OT binding assay.

The next test has as its target T2, uterine OT receptors (Rattus norvegicus, UniProt P70536).
T2 construct: from tissue; host or cells: uterus of DES-treated rats, crude membranes
T2 sequence (P70536 1-388): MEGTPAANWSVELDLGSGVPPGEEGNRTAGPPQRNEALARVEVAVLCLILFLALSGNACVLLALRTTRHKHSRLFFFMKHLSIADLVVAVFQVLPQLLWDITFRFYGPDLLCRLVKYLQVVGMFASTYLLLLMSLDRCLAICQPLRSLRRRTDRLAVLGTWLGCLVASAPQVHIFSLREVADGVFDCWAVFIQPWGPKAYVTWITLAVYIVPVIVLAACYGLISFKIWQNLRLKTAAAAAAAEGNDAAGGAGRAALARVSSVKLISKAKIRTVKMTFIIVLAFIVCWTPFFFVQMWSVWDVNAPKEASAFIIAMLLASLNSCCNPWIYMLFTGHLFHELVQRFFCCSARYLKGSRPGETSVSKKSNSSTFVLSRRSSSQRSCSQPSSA
Put plainly: [^3 H]OT binding to uterine OT receptors, crude membrane preparation of uteri from DES-treated rats. The procedure:
Competition studies were conducted at equilibrium (60 minutes; 22° C.) using 1 nM [^3 H]OT in the following assay buffer: 50 mM Tris-HCl, 5 mM MgCl2, and 0.1% BSA, pH 7.4.

Another test deals with T3, AVP-V2 sites (Rattus norvegicus, UniProt Q00788).
T3 construct: male rat liver (AVP-V1 sites) or kidney medulla (AVP-V2 sites); from tissue; host or cells: male rat kidney medulla, crude membranes
Put plainly: [^3 H]AVP binding to crude membrane preparation of male rat kidney medulla (AVP-V2 sites). The protocol:
as §1

Where [1] appears, read: Receptor Binding Results IC50 (nM) [^3 H]-AVP-V1.
The mark [2] stands for this setting: rat uterus membranes, 1 nM [^3 H]OT, read-out: Receptor Binding Results IC50 (nM) [^3 H]OT.
The mark [3] stands for this setting: rat kidney medulla membranes, 2 nM [^3 H]AVP, read-out: Receptor Binding Results IC50 (nM) [^3 H]-AVP-V2.
[4] abbreviates: Receptor Binding Results IC50 (nM) [^3 H]OT.
Where [5] appears, read: Receptor Binding Results IC50 (nM) [^3 H]-AVP-V2.
Setting [6] is: read-out: Receptor Binding Results IC50 (nM) [^3 H]-AVP-V1.

Where a name gives a salt, the structure may show the parent alone. Read-outs that look alike come from different tables or passages of the source. Numbered stars: 1 amine (or outer) side, 2 acyl side, 3 side chain; on linkers, the order of the positions; unused ones are H or OH. Square brackets hold non-standard residues; d marks the D form. Peptide text beside a SMILES is read from it. X8 = Cn1c[n+](C)cc1C[C@@H](N[*:1])C(=O)[*:2]; d2Nal = N[C@H](Cc1ccc2ccccc2c1)C(=O)O; dNMeH = CN[C@H](Cc1c[nH]cn1)C(=O)O; NMeI = CC[C@H](C)[C@H](NC)C(=O)O; X6 = O=C([C@H]1CCCNN1[*:1])[*:2]; dNMeF = CN[C@H](Cc1ccccc1)C(=O)O; Pip = O=C(O)[C@@H]1CCCCN1; dPip = O=C(O)[C@H]1CCCCN1; Nle = CCCC[C@H](N)C(=O)O; dNMeA = CN[C@H](C)C(=O)O

T3 sequence (Q00788 whole entry): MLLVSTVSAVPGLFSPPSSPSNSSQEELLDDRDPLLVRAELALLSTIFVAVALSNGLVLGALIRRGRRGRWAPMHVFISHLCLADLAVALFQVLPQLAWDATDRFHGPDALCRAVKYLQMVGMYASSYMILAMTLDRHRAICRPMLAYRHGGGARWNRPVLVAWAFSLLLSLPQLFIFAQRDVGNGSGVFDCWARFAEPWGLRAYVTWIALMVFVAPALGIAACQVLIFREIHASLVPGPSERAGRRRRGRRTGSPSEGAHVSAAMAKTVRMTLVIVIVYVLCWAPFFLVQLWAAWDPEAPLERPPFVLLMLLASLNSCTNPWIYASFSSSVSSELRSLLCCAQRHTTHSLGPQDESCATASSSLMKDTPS
T1 sequence (P30560 whole entry): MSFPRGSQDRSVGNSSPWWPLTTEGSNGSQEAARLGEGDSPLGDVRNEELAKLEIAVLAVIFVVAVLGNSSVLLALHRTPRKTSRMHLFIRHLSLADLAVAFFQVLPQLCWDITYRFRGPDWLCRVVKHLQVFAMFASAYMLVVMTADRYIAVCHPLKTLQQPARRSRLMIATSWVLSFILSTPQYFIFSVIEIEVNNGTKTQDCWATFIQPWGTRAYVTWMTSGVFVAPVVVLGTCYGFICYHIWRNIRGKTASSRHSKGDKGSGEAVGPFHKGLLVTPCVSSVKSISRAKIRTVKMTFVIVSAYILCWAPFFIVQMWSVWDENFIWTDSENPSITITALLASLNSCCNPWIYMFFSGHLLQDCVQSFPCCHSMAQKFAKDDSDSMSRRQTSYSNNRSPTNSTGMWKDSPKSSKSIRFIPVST

`CC[C@H](C)[C@@H]1NC(=O)[C@@H](Cc2ccccc2)NC(=O)[C@@H]2CCCN2C(=O)[C@@H](Cc2ccccc2)N(C)C(=O)[C@@H](C)N(C)C(=O)[C@H]2CCCCN2C1=O` [Example 6, Cyclo[D-phenyalanyl-L-isoleucyl-D-pipecolyl-L-(N^α -methyl)alanyl-D-(N^α Methyl)phenylanyl-L-prolyl]] (cyclo([dF]I[dPip][dNMeA][dNMeF]P)): the IC50 is above 10000 nM on AVP-V1 sites (setting [1]), 1800 nM at uterine OT receptors (setting [2]) and above 10000 nM on AVP-V2 sites (setting [3]).
In the case of `CC[C@H](C)[C@@H]1NC(=O)[C@@H](Cc2ccccc2)NC(=O)[C@@H]2CCCN2C(=O)[C@@H](Cc2ccccc2)N(C)C(=O)[C@@H]2CCCN2C(=O)[C@H]2CCCCN2C1=O` [Example 7, Cyclo[D-phenylalanyl-L-isolelucyl-D-pipecolyl-L-propyl-D-(N^α Methyl)phenyl-L-prolyl]] (cyclo(I[dPip]P[dNMeF]P[dF])), the concentration for half-maximal inhibition (IC50) was above 10000 nM at AVP-V1 sites (setting [1]), 350 nM on uterine OT receptors (setting [4]) and above 10000 nM at AVP-V2 sites (setting [3]).
With `CC[C@H](C)[C@@H]1NC(=O)[C@@H](Cc2ccccc2)NC(=O)[C@@H]2CCCN2C(=O)[C@@H](Cc2ccccc2)N(C)C(=O)[C@@H]2CCCCN2C(=O)[C@@H](C)N(C)C1=O` [Example 8, Cyclo[D-Phenylalanyl-L-isoleucyl-D-(N^α methyl)alanyl-L-pipecolyl-D-(N^α methyl)phenylanyl-L-prolyl]] (cyclo(I[dNMeA][Pip][dNMeF]P[dF])), the results for the IC50 at AVP-V1 sites (setting [1]), at uterine OT receptors (setting [2]) and on AVP-V2 sites (setting [3]) were above 10000 nM, 850 nM and above 10000 nM, respectively.
`C[C@@H]1NC(=O)[C@@H](Cc2ccccc2)NC(=O)[C@@H]2CCCN2C(=O)[C@@H](Cc2ccccc2)N(C)C(=O)[C@@H]2CCCCN2C(=O)[C@H]2CCCCN2C1=O` [Example 9, Cyclo[D-phenylalanyl-L-alanyl-D-pipecolyl-L-pipecolyl-D-(N^α methyl)phenylalanyl-L-prolyl]] (cyclo(A[dPip][Pip][dNMeF]P[dF])): the IC50 on AVP-V1 sites (setting [1]), on uterine OT receptors (setting [2]) and on AVP-V2 sites (setting [3]) was above 10000 nM each time.
Take `CC[C@H](C)[C@@H]1NC(=O)[C@@H](Cc2ccc3ccccc3c2)NC(=O)[C@@H]2CCCN2C(=O)[C@@H](Cc2c[nH]cn2)NC(=O)[C@@H]2CCCCN2C(=O)[C@H]2CCCCN2C1=O` [Example 12, Cyclo[D-2-naphthalalanyl-L-isoleucyl-D-pipecolyl-L-pipecolyl-D-histidyl-L-prolyl]] (cyclo(I[dPip][Pip][dH]P[d2Nal])): the IC50 at AVP-V1 sites (setting [1]) is above 1000 nM; at uterine OT receptors (setting [2]), 1.2 nM; at AVP-V2 sites (setting [5]), above 1000 nM.
Turning to `CC[C@H](C)[C@@H]1NC(=O)[C@@H](Cc2ccccc2)NC(=O)[C@@H]2CCCN2C(=O)[C@@H](Cc2ccccc2)N(C)C(=O)[C@H](Cc2cnc[nH]2)NC(=O)[C@H]2CCCCN2C1=O` [Example 13] (cyclo(H[dNMeF]P[dF]I[dPip])), the IC50 at AVP-V1 sites (setting [1]) was above 1000 nM; on uterine OT receptors (setting [2]), 150 nM; at AVP-V2 sites (setting [5]) it was above 1000 nM.
For the compound `CC[C@H](C)[C@@H]1NC(=O)[C@@H](Cc2ccccc2)NC(=O)[C@@H]2CCCN2C(=O)[C@@H](Cc2c[nH]cn2)NC(=O)[C@@H]2CCCCN2C(=O)[C@H]2CCCNN2C1=O` [Example 14, Cyclo[D-phenylalanyl-L-isoleucyl-D-piperazyl-L-pipecolyl-D-histidyl-L-prolyl]] (cyclo(I[X6][Pip][dH]P[dF])), the IC50 is 10000 nM on AVP-V1 sites (setting [6]), 38 nM on uterine OT receptors (setting [2]) and above 10000 nM on AVP-V2 sites (read-out: Receptor Binding Results IC50 (nM) [^3 H]-AVP-V2).
For `CC[C@H](C)[C@H]1C(=O)N2CCCC[C@@H]2C(=O)N2CCCC[C@H]2C(=O)N(C)[C@H](Cc2ccccc2)C(=O)N2CCC[C@H]2C(=O)N(C)[C@H](Cc2ccccc2)C(=O)N1C` [Example 15, C-[D-(N^α methyl)phenylalanyl-L-(N^α methyl)isoleucyl-D-pipecolyl-L-pipecolyl-D-(N^α methyl)phenylalanyl-L-prolyl]] (cyclo([NMeI][dPip][Pip][dNMeF]P[dNMeF])), the IC50 on AVP-V1 sites (setting [1]), at uterine OT receptors (setting [2]) and on AVP-V2 sites (setting [3]) was above 10000 nM each time.
In the case of `CC[C@H](C)[C@H]1C(=O)N2CCCC[C@@H]2C(=O)N2CCCC[C@H]2C(=O)N(C)[C@H](Cc2ccccc2)C(=O)N2CCC[C@H]2C(=O)N(C)[C@H](C)C(=O)N1C` [Example 16, C-[D-(N^α methyl)alanyl-L-(N^α methyl)isoleucyl-D-pipecolyl-L-pipecolyl-D-(N^α methyl)phenylalanyl-L-prolyl]] (cyclo([NMeI][dPip][Pip][dNMeF]P[dNMeA])), the IC50 on AVP-V1 sites (setting [1]) was above 10000 nM; on uterine OT receptors (setting [2]) it was 650 nM; on AVP-V2 sites (setting [3]), above 10000 nM.
Take `CC[C@H](C)[C@@H]1NC(=O)[C@@H](Cc2c[nH]c3ccccc23)NC(=O)[C@@H]2CCCN2C(=O)[C@@H](Cc2c[nH]cn2)NC(=O)[C@@H]2CCCCN2C(=O)[C@H]2CCCCN2C1=O` [Example 17, C-[D-tryptophanyl-L-isolelucyl-D-pipecolyl-L-pipecolyl-D-histidyl-L-prolyl]] (cyclo(I[dPip][Pip][dH]P[dW])): the IC50 turned out to be 8200 nM on AVP-V1 sites (setting [6]), 14 nM on uterine OT receptors (setting [4]) and 5400 nM at AVP-V2 sites (setting [3]).
For `CC[C@H](C)[C@@H]1NC(=O)[C@@H](Cc2c[nH]c3ccccc23)NC(=O)[C@@H]2CCCN2C(=O)[C@@H](Cc2c[n+](C)cn2C)NC(=O)[C@@H]2CCCCN2C(=O)[C@H]2CCCCN2C1=O` [Example 18, Cyclo[D-tryptophanyl-L-isoleucyl-D-pipecolyl-L-pipecolyl-D-[im-(CH3)2]^+ histidyl-L-prolyl] trifluoroacetate] (cyclo(I[dPip][Pip][X8]P[dW])), the results for the IC50 at AVP-V1 sites (setting [1]), on uterine OT receptors (setting [2]) and at AVP-V2 sites (setting [3]) were above 1000 nM, 450 nM and above 10000 nM, respectively.
`CC[C@H](C)[C@@H]1NC(=O)[C@@H](Cc2c[nH]c3ccccc23)NC(=O)[C@@H]2CCCN2C(=O)[C@@H](Cc2c[nH]cn2)N(C)C(=O)[C@@H]2CCCCN2C(=O)[C@H]2CCCCN2C1=O` [Example 19, Cyclo[D-tryptophanyl-L-isoleucyl-D-pipecolyl-L-pipecolyl-D-(N^α methyl)histidyl-L-prolyl]] (cyclo(I[dPip][Pip][dNMeH]P[dW])): the IC50 amounted to 13700 nM on AVP-V1 sites (setting [6]), 18 nM on uterine OT receptors (setting [2]) and 4330 nM on AVP-V2 sites (setting [3]).
In the case of `CCCC[C@@H]1NC(=O)[C@@H](Cc2c[nH]c3ccccc23)NC(=O)[C@@H]2CCCN2C(=O)[C@@H](Cc2c[nH]cn2)NC(=O)[C@@H]2CCCCN2C(=O)[C@H]2CCCCN2C1=O` [Example 20, Cyclo[D-tryptophanyl-L-Norleucyl-D-pipecolyl-L-pipecolyl-D-histidyl-L-prolyl]] (cyclo([Nle][dPip][Pip][dH]P[dW])), the IC50 on AVP-V1 sites (setting [1]) was above 1000 nM; at uterine OT receptors (setting [2]), 72 nM; at AVP-V2 sites (setting [5]), above 1000 nM.
For `CC(C)C[C@@H]1NC(=O)[C@@H](Cc2c[nH]c3ccccc23)NC(=O)[C@@H]2CCCN2C(=O)[C@@H](Cc2c[nH]cn2)NC(=O)[C@@H]2CCCCN2C(=O)[C@H]2CCCCN2C1=O` [Example 21, Cyclo[D-tryptophanyl-L-leucyl-D-pipecolyl-L-pipecolyl-D-histidyl-L-prolyl]] (cyclo(L[dPip][Pip][dH]P[dW])), the IC50 at AVP-V1 sites (setting [1]) was 10000 nM; at uterine OT receptors (setting [4]) it was 190 nM; on AVP-V2 sites (setting [5]), above 10000 nM.
